Reference: US8877747B2, “Indenone derivative and pharmaceutical composition comprising same” (Korea Research Institute of Chemical Technology, priority 2009, dated 2014)
Counter-ions that a name gives are not always drawn.

Legend:
[1] = test system: ovariectomized female SD rats; test: Bone density after ovariectomy, in-vivo micro-CT; design: species or system rat; conditions: oral once a day for 4 weeks
Text: (§1) Most pharmacological effectiveness of therapeutic agents for osteoporosis has been evaluated using an animal, rather than a human. Particularly, as a model animal for osteoporosis occurring after menopause, ovariectomized female rats have been used for its similarity to women after menopause. To examine the effects of the indenone derivatives on the bone resorption, female SD rats and female DDY mice were subjected to ovariectomy. After the rats or mice were anesthetized by abdominally injecting 25 mg/kg of sodium pentobarbital (Choongwae pharma coporation), the fur of the abdominal region was shaved and the operation area was sterilized. About 1.5 cm of abdominal skin, abdominal muscle, and peritoneum were cut in the middle under aseptic condition, and ovary was exposed, followed by removal of both left and right ovaries after ligaturing of oviducts using silk threads. Then, peritoneum, abdominal muscle and skin were sutured with silk threads. The Sham group, animals operated upon for the surgery as in the ovariectomized rats except for removing ovary, was employed to compare the effects. […]

[2] = test system: ovariectomized female DDY mice; test: Bone density after ovariectomy, in-vivo micro-CT; design: species or system mouse; conditions: oral once a day for 4 weeks
Text: as §1

MC3T3-E1 cells = test: ALP activity, differentiation of osteoblast cells; assay type: cell-based; conditions: Mus musculus, MC3T3-E1, 144 h; MC3T3E1 cells treated with 10 μM compound and OF; relates activity to OF-only group (100%); higher = more efficacious
Method in brief: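 MC3T3-E1 cells were cultured 6 days at 37 °C in osteogenic medium (ascorbic acid, β-glycerophosphate) with compound at 0.1, 1 and 10 μM; medium and compound were renewed every 2-3 days. Freeze-thaw lysates were protein-normalised and ALP activity was read with 4-nitrophenylphosphate; DMSO and OF-only groups served as comparators.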

For `O=C1C(c2cccnc2)=C(c2ccccc2)c2ccc(OCCN3CCOCC3)cc21` [Example 1, 6-(2-morpholinoethoxy)-3-phenyl-2-(pyridin-3-yl)-1H-inden-1-one hydrochloride salt], the “Bone density (FIG. 3B)” value [1] was “significantly increased”, the “Bone density (FIG. 3A)” value [2] was “significantly increased” and the activity at 10 µM (MC3T3-E1 cells) was 455%.

`O=C1C(c2cncc3ccccc23)=C(c2ccccc2)c2ccc(OCCN3CCOCC3)cc21` [Example 15, 6-(2-morpholinoethoxy)-2-(isoquinolin-4-yl)-3-phenyl-1H-inden-1-one] showed an activity at 10 µM (MC3T3-E1 cells) of 65%.

In the case of `Cc1ccc(C2=C(c3cc(F)cc(F)c3)c3ccc(OCCN4CCS(=O)(=O)CC4)cc3C2=O)cc1` [Example 94, 3-(3,5-difluorophenyl)-6-[2-(1,1-dioxothiomorpholin-4-yl)ethoxy]-2-p-tolyl-1H-inden-1-one hydrochloride salt], the activity at 10 µM (MC3T3-E1 cells) is reported as 109%.

In the case of `O=C1C(c2cccnc2)=C(c2cc(F)cc(F)c2)c2ccc(OCCC3CCNCC3)cc21` [Example 70, 3-(3,5-difluorophenyl)-6-(2-(piperidin-4-yl)ethoxy)-2-(pyridin-3-yl)-1H-inden-1-one hydrochloride salt], the activity at 10 µM (MC3T3-E1 cells) is reported as 19%.

Compound `O=C1C(c2ccc(-c3ccccc3)cc2)=C(c2ccccc2)c2ccc(OCCN3CCOCC3)cc21` [Example 10, 6-(2-morpholinoethoxy)-2-(4-(phenyl)phenyl)-3-phenyl-1H-inden-1-one] has an activity at 10 µM (MC3T3-E1 cells) of 172%.

Compound `COc1ccc(C2=C(c3ccccc3)c3ccc(OCCN4CCOCC4)cc3C2=O)cc1F` [Example 2, 6-(2-morpholinoethoxy)-2-(3-fluoro-4-methoxyphenyl)-3-phenyl-1H-inden-1-one] has an activity at 10 µM (MC3T3-E1 cells) of 221%.

Compound `COc1ccc(C2=C(c3cc(F)cc(F)c3)c3ccc(OCCN4CCN(S(C)(=O)=O)CC4)cc3C2=O)cn1` [Example 97, 3-(3,5-difluorophenyl)-2-(6-methoxypyridin-3-yl)-6-{2-[4-(methylsulfonyl)piperazin-1-yl]ethoxy}-1H-inden-1-one hydrochloride salt] has an activity at 10 µM (MC3T3-E1 cells) of 179%.

In the case of `O=C1C(c2cccnc2)=C(c2ccc(F)cc2)c2ccc(OCCN3CCOCC3)cc21` [Example 24, 6-(2-morpholinoethoxy)-3-(4-fluorophenyl)-2-(pyridin-3-yl)-1H-inden-1-one], the activity at 10 µM (MC3T3-E1 cells) is reported as 121%.

Work on `O=C1C(c2cncnc2)=C(c2ccc(Cl)cc2)c2ccc(OCCN3CCOCC3)cc21` [Example 30, 6-(2-morpholinoethoxy)-3-(4-chlorophenyl)-2-(pyrimidin-5-yl)-1H-inden-1-one] yielded an activity at 10 µM (MC3T3-E1 cells) of 150%.

In the case of `Cn1ccc2cc(C3=C(c4ccccc4)c4ccc(OCCN5CCOCC5)cc4C3=O)ccc21` [Example 87, 2-(1-methyl-1H-indol-5-yl)-6-(2-morpholinoethoxy)-3-phenyl-1H-inden-1-one], the activity at 10 µM (MC3T3-E1 cells) is reported as 71%.

Compound `Nc1cccc(C2=C(c3ccccc3)c3ccc(OCCN4CCOCC4)cc3C2=O)c1` [Example 20, 6-(2-morpholinoethoxy)-2-(3-aminophenyl)-3-phenyl-1H-inden-1-one] has an activity at 10 µM (MC3T3-E1 cells) of 283%.

With `CS(=O)(=O)N1CCN(CCCOc2ccc3c(c2)C(=O)C(c2cccnc2)=C3c2cc(F)cc(F)c2)CC1` [Example 68, 3-(3,5-difluorophenyl)-6-(3-(4-(methylsulfonyl)piperazin-1-yl)propoxy)-2-(pyridin-3-yl)-1H-inden-1-one hydrochloride salt] the activity at 10 µM (MC3T3-E1 cells) was 164%.

In the case of `COc1ccc(C2=C(c3ccc(F)cc3F)c3ccc(OCCC4CCN(S(C)(=O)=O)CC4)cc3C2=O)cn1` [Example 121, 3-(2,4-difluorophenyl)-2-(6-methoxypyridin-3-yl)-6-{2-[1-(methylsulfonyl)piperidin-4-yl]ethoxy}-1H-inden-1-one], the activity at 10 µM (MC3T3-E1 cells) is reported as 207%.

`CC(=O)Nc1cccc(C2=C(c3ccccc3)c3ccc(OCCN4CCOCC4)cc3C2=O)c1` [Example 14, N-(3-(6-(2-morpholinoethoxy)-1-oxo-3-phenyl-1H-inden-2-yl)phenyl)acetamide] gave an activity at 10 µM (MC3T3-E1 cells) of 131%.

Compound `O=C1C(c2ccc3ccccc3c2)=C(c2ccccc2)c2ccc(OCCN3CCOCC3)cc21` [Example 16, 6-(2-morpholinoethoxy)-2-(naphthalen-3-yl)-3-phenyl-1H-inden-1-one] has an activity at 10 µM (MC3T3-E1 cells) of 713%.

With `O=C1C(c2cccnc2)=C(c2cc(F)cc(F)c2)c2ccc(OCC3CCCO3)cc21` (stereo not shown) [Example 79, 3-(3,5-difluorophenyl)-2-(pyridin-3-yl)-6-((tetrahydrofuran-2-yl)methoxy)-1H-inden-1-one] the activity at 10 µM (MC3T3-E1 cells) was 110%.

For `O=C1C(c2cncnc2)=C(c2ccc(F)cc2)c2ccc(OCCN3CCOCC3)cc21` [Example 25, 6-(2-morpholinoethoxy)-3-(4-fluorophenyl)-2-(pyrimidin-5-yl)-1H-inden-1-one], the activity at 10 µM (MC3T3-E1 cells) was 105%.

With `COc1ccc(C2=C(c3ccc(F)cc3F)c3ccc(OCCN4CCS(=O)(=O)CC4)cc3C2=O)cc1F` [Example 114, 2-(3-fluoro-4-methoxyphenyl)-3-(2,4-difluorophenyl)-6-[2-(1,1-dioxothiomorpholin-4-yl)ethoxy]-1H-inden-1-one] the activity at 10 µM (MC3T3-E1 cells) was 286%.

For `CS(=O)(=O)N1CCC(CCOc2ccc3c(c2)C(=O)C(c2cnc4ccccc4c2)=C3c2ccc(F)cc2F)CC1` [Example 123, 3-(2,4-difluorophenyl)-6-{2-[1-(methylsulfonyl)piperidin-4-yl]ethoxy}-2-(quinolin-3-yl)-1H-inden-1-one], the activity at 10 µM (MC3T3-E1 cells) was 164%.

In the case of `Cc1ccc(C2=C(c3ccc(F)cc3F)c3ccc(OCCC4CCN(S(C)(=O)=O)CC4)cc3C2=O)cc1` [Example 120, 3-(2,4-difluorophenyl)-6-{2-[1-(methylsulfonyl)piperidin-4-yl]ethoxy}-2-p-tolyl-1H-inden-1-one], the activity at 10 µM (MC3T3-E1 cells) is reported as 169%.

With `CS(=O)(=O)N1CCN(CCOc2ccc3c(c2)C(=O)C(c2ccc(F)c(F)c2)=C3c2cc(F)cc(F)c2)CC1` [Example 51, 2-(3,4-difluorophenyl)-3-(3,5-difluorophenyl)-6-(2-(4-(methylsulfonyl)piperazin-1-yl)ethoxy)-1H-inden-1-one hydrochloride salt] the activity at 10 µM (MC3T3-E1 cells) was 33%.

Compound `Cc1ccc(C2=C(c3ccc(F)cc3F)c3ccc(OCCN4CCS(=O)(=O)CC4)cc3C2=O)cc1` [Example 112, 3-(2,4-difluorophenyl)-6-[2-(1,1-dioxothiomorpholin-4-yl)ethoxy]-2-p-tolyl-1H-inden-1-one] has an activity at 10 µM (MC3T3-E1 cells) of 70%.

For `CN(C)CCOc1ccc2c(c1)C(=O)C(c1cccnc1)=C2c1ccccc1` [Example 56, 6-(2-(dimethylamino)ethoxy)-3-phenyl-2-(pyridin-3-yl)-1H-inden-1-one hydrochloride salt], the activity at 10 µM (MC3T3-E1 cells) was 71%.
